Results from publication PMC11213733, “Computational approaches identify a transcriptomic fingerprint of drug-induced structural cardiotoxicity” (Cell Biology and Toxicology, 2024).
Structures can show the parent of a compound that is named as a salt.

Tests used:
cardiac microtissues = assay: Transcriptomic profiling (mRNA-seq) and DESeq2 differential gene expression analysis in cardiac microtissues; conditions: absolute log2(Fold-Change) > 1, FDR p ≤ 0.05; for number of significant differentially expressed genes, 6hr high / number of significant differentially expressed genes, 48hr high / number of significant differentially expressed genes, 72hr high: high concentration; for number of significant differentially expressed genes, 6hr low / number of significant differentially expressed genes, 48hr low / number of significant differentially expressed genes, 72hr low: low concentration
[1] = ref FDA label, cited from earlier work; for Structural cardiotoxin?: FDA label references heart failure or a decrease in left ventricular ejection fraction; for Functional cardiotoxin?: compound annotation

SMILES	Structural cardiotoxin? [1]	Functional cardiotoxin? [1]	also measured
Nc1nc2c(ncn2COCCO)c(=O)[nH]1 [Acyclovir]			number of significant differentially expressed genes, 6hr high (cardiac microtissues): 3; number of significant differentially expressed genes, 6hr low (cardiac microtissues): 4; number of significant differentially expressed genes, 48hr high (cardiac microtissues): 0; number of significant differentially expressed genes, 48hr low (cardiac microtissues): 0; number of significant differentially expressed genes, 72hr high (cardiac microtissues): 0; number of significant differentially expressed genes, 72hr low (cardiac microtissues): 0
CN(C)C/C=C/C(=O)Nc1cc2c(Nc3ccc(F)c(Cl)c3)ncnc2cc1O[C@H]1CCOC1 [Afatinib]	N	N	
CC1(C)S[C@@H]2[C@H](NC(=O)[C@H](N)c3ccc(O)cc3)C(=O)N2[C@H]1C(=O)O [Amoxacillin]	N	N	
CNC(=O)c1ccccc1Sc1ccc2c(/C=C/c3ccccn3)n[nH]c2c1 [Axitinib]	N	Y	
Cc1ccc(-c2cc(C(F)(F)F)nn2-c2ccc(S(N)(=O)=O)cc2)cc1 [Celecoxib]	Y	Y	
Cc1cc(Nc2ncc(Cl)c(Nc3ccccc3S(=O)(=O)C(C)C)n2)c(OC(C)C)cc1C1CCNCC1 [Ceritinib]	N	Y	
C[C@@H](Oc1cc(-c2cnn(C3CCNCC3)c2)cnc1N)c1c(Cl)ccc(F)c1Cl [Crizotinib]	N	Y	
O=P1(N(CCCl)CCCl)NCCCO1 (stereo not drawn) [Cyclophosphamide]	Y	Y	
Nc1ccc(S(=O)(=O)c2ccc(N)cc2)cc1 [Dapsone]	N	N	
COc1cccc2c1C(=O)c1c(O)c3c(c(O)c1C2=O)C[C@@](O)(C(C)=O)C[C@@H]3O[C@H]1C[C@H](N)[C@H](O)[C@H](C)O1 [Daunorubicin]	Y	Y	
C[C@@H]1C[C@H]2[C@@H]3CCC4=CC(=O)C=C[C@]4(C)[C@@]3(F)[C@@H](O)C[C@]2(C)[C@@]1(O)C(=O)CO [Dexamethasone]	N	N	
COc1cccc2c1C(=O)c1c(O)c3c(c(O)c1C2=O)C[C@@](O)(C(=O)CO)C[C@@H]3O[C@H]1C[C@H](N)[C@@H](O)[C@H](C)O1 [Epirubicin]	Y	Y	
COC(=O)[C@@H]1CC2=CC(=O)CC[C@]2(C)[C@@]23O[C@@H]2C[C@@]2(C)[C@@H](CC[C@@]24CCC(=O)O4)[C@H]13 [Eplerenone]	N	Y	
Cc1ccc(C)c(OCCCC(C)(C)C(=O)O)c1 [Gemfibrozil]	N	N	
CC(C)NCC(O)c1ccc(O)c(O)c1 (stereo not drawn) [Isoproterenol HCl]	Y	Y	
CCn1cc(C(=O)O)c(=O)c2cc(F)c(N3CCNC(C)C3)c(F)c21 (stereo not drawn) [Lomefloxacin]	Y	Y	
COC(=O)Nc1nc2ccc(C(=O)c3ccccc3)cc2[nH]1 [Mebendazole]			number of significant differentially expressed genes, 6hr high (cardiac microtissues): 195; number of significant differentially expressed genes, 6hr low (cardiac microtissues): 27; number of significant differentially expressed genes, 48hr high (cardiac microtissues): 407; number of significant differentially expressed genes, 48hr low (cardiac microtissues): 79; number of significant differentially expressed genes, 72hr high (cardiac microtissues): 536; number of significant differentially expressed genes, 72hr low (cardiac microtissues): 192
CN(C)CCN(Cc1cccs1)c1ccccn1 [Methapyrilene]	N		
O=C1C[C@@H](c2ccc(O)cc2)Oc2cc(O)cc(O)c21 [Narigenin, Naringenin]	N	N	
Cc1ccc(Nc2nccc(N(C)c3ccc4c(C)n(C)nc4c3)n2)cc1S(N)(=O)=O [Pazopanib]	N	Y	
CCc1ccc(CCOc2ccc(CC3SC(=O)NC3=O)cc2)nc1 (stereo not drawn) [Pioglitazone]	Y	Y	
Cc1ccc(C(=O)Nc2ccc(CN3CCN(C)CC3)c(C(F)(F)F)c2)cc1C#Cc1cnc2cccnn12 [Ponatinib]	Y	Y	
